Data published in patent publication US6495598B1, “Perfusate preparation for ophthalmic operation” (Ophtecs Corporation, priority 2001, dated 2002).
Entries after “also recorded” stand apart in the source; their conditions may differ. Where two headings read alike, the source gives them in different places.

Columns and labels:
[1] = tested on: incubated bovine corneal endothelial cell; experiment: cell-activating effect, MTT assay-based method; details: for cell-activating effect (absorbance at 450 nm): 5 and 20 mM, 48 hrs incubation, vs control containing no HBA
Procedure: The D-form, D,L-form and L-form of D-3-HBA were dissolved in the DULBECCO's MEM salt incubation media at concentrations of 0 (control), 5 and 20 mM, respectively, and the resulting solutions were injected into a 24-well collagen-coated plate implanted (4×10^4 cell/ml) with a pre-incubated bovine corneal endothelial cell and then incubated for 48 hrs. After the incubation, 50 μl of cell-counting kit (product of DOJIN KAGAKU Ltd.) was added to each well to develop colors, and absorbance at 450 nm was measured by using each supernatant.

[2] = tested on: cultured bovine corneal endothelial cells damaged by ultrasound
Procedure: As an invasive model assuming a phacoemulsification and aspiration method used as a surgical method of cataract, incubated bovine corneal endothelial cells damaged by ultrasound were subjected to an experiment for examining the recovery of their barrier function.
Using the incubated bovine corneal endothelial cells damaged by ultrasound, the barrier function-recovering effects of D-3-HBA and oxyglutathione were subjected to an experiment in accordance with the following procedure.
The monolayer of cultured bovine corneal endothelial cells on a filter, which had been damaged by sonication to the cells at 92 W/cm^2 three course at intervals of 0.1 sec, was incubated in DULBECCO's MEM medium (with 10% of embryonic bovine serum) containing 20 mM of D-3-HBA or 0.3 mM of oxyglutathione.

[3] = tested on: corneas of Dutch rabbits; details: 90 minutes irrigation
Procedure: Irrigating solution No.1 (Example) and solutions No.3, No.4 and No.5 (Comparative Examples) for testing were prepared by dissolving the predetermined amounts of the components listed in Table 2 and, finally, D-3-HBA so as to adjust the total amounts of the aqueous solutions to be 1 liter; adjusting the pHs of the solutions by diluted hydrochloric acid, and subjecting the solutions to aseptic treatment.
Dutch rabbits (male and female weighing 1.9 to 2.9 kg) were used for an experiment. Experiments were performed in rabbit, anesthetized with intramuscular xylazine hydrochloride (“celactal®”, a product Bayer AG.,) and ketamine hydrochloride (“ketalar®”, a product of Sankyo Co. Ltd,.) through intramuscular injection, a 3.2-mm-wide incision was made corneas limbusing a scalpel for ocular surgery. Subsequently, 18-gauge injection needles having a rounded tip were inserted in the anterior chambers through the incisions, and the irrigating solutions were allowed to irrigate at a flow rate of 10 ml/min for 90 minutes. After the irrigation, the incisions were sewed up once by a sewing needle with a suture. The corneal thicknesses were measured by the ultrasonic pachymeter used in Example 4 before and during the perfusion (at intervals of 30 minutes).

Structure (SMILES)	cell-activating effect (absorbance at 450 nm) [1]	cell-activating effect (absorbance at 450 nm) ([1]; listed as D-form)	optimum concentration for cell-activating effect ([1]; tested at 5 and 20 mM, 48 hrs) [mM]	recovery of the barrier function ([2]; 20 mM in MEM medium after sonication damage)	electrical resistance value of the endothelial layer ([2]; 20 mM in MEM medium, vs MEM with 0.3 mM oxyglutathione and MEM alone)	effect of keeping the change in the corneal thickness small ([3]; bicarbonate ions added to the irrigating solution (FIG. 5))	effect of keeping the change in the corneal thickness small ([3]; bicarbonate ions not added to the irrigating solution (FIG. 6))
CC(O)CC(=O)O (racemic) [D,L-form, reference compound]	did not show a significant difference	–	–	–	–	–	–
C[C@H](O)CC(=O)O [L-form, reference compound]	hardly obtained; also recorded: did not show a significant difference in activity at any concentrations	–	–	–	–	–	–
C[C@@H](O)CC(=O)[O-].[Na+] [Solution D-3-HBA, sodium D-3-hydroxy butyrate]	the most active at any concentrations	activity is obtained	20	quick recovery effect	closer to the value before the irradiation of ultrasound at any observation time	significant	not significant
